Measurements published in US20250326744A1, “PIPERAZINE DERIVATIVE OR SALT THEREOF, AND PHARMACEUTICAL COMPOSITION” (priority 2022, published 2025).
Counter-ions that a name gives are not always drawn.

Experiments:
mexB (PA) strain = assay: Combinational effect with antibacterial agent against Pseudomonas aeruginosa (Test Examples 2 and 4): mexB (PA) strain with LVFX, TC or AZT at 1/4 MIC, EC99; type: cell-based; conditions: for EC99, combinational effect with AZT, mexB (PA) / EC99, combinational effect with LVFX, mexB (PA) / EC99, combinational effect with TC, mexB (PA): mexB (PA) strain, Test Example 4; for EC99, combinational effect with AZT, mexB (PA) / EC99, mexB (PA), AZT: combined with AZT at 1/4 MIC; for EC99, combinational effect with LVFX, mexB (PA) / EC99, mexB (PA), LVFX: combined with LVFX at 1/4 MIC; for EC99, combinational effect with TC, mexB (PA) / EC99, mexB (PA), TC: combined with TC at 1/4 MIC; for EC99, mexB (PA), AZT / EC99, mexB (PA), LVFX / EC99, mexB (PA), TC: Table 52, Test Example 2, 16 to 20 hours culture, OD595
How it was run: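 EC99 denotes the minimum test-compound concentration (range 0–800 μM) that suppresses ≥99% of growth, measured by OD595, when combined with ¼ MIC levofloxacin (LVFX), tetracycline or aztreonam. The efflux-pump mutant mexB (PA), expressing mainly MexAB-OprM, was inoculated at 10^4–5 CFU/well in CAMHB for 16–20 h.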

S-3769 strain = assay: Combinational effect with antibacterial agent against Pseudomonas aeruginosa (Test Examples 2 and 4): S-3769 strain with AMK or GM at 1/4 MIC, EC99; type: cell-based; conditions: for EC99, combinational effect with AMK, S-3769 strain / EC99, S-3769 strain, AMK: combined with AMK at 1/4 MIC; for EC99, combinational effect with AMK, S-3769 strain / EC99, combinational effect with GM, S-3769 strain: Test Example 4; for EC99, combinational effect with GM, S-3769 strain / EC99, S-3769 strain, GM: combined with GM at 1/4 MIC; for EC99, S-3769 strain, AMK / EC99, S-3769 strain, GM: Table 52, Test Example 2, 16 to 20 hours culture, OD595
How it was run: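 EC99, the lowest test-compound concentration inhibiting growth by ≥99% (OD595), was measured with aminoglycoside AMK or GM held at ¼ MIC. Strain S-3769, a MexY-overexpressing clinical isolate, was cultured in CAMHB at 10^4 to 5 CFU/well for 16–20 h; compound range 0–800 μM.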

Compound	EC99, combinational effect with AZT, mexB (PA) (mexB (PA) strain)	EC99, combinational effect with LVFX, mexB (PA) (mexB (PA) strain)	EC99, combinational effect with TC, mexB (PA) (mexB (PA) strain)	EC99, combinational effect with AMK, S-3769 strain (S-3769 strain)	EC99, combinational effect with GM, S-3769 strain (S-3769 strain)	EC99, mexB (PA), AZT (mexB (PA) strain)	EC99, mexB (PA), LVFX (mexB (PA) strain)	EC99, mexB (PA), TC (mexB (PA) strain)	EC99, S-3769 strain, AMK (S-3769 strain)	EC99, S-3769 strain, GM (S-3769 strain)
CCSc1cc(F)ccc1CN1CCN(C(=O)[C@H](N)C2CCN(CCc3cc(Cl)ccc3-c3ccccc3N)CC2)CC1 [Example 604, Hydrochloride of (R)-2-amino-2-(1-(2-(2′-amino-4-chloro-[1,1-biphenyl]-2-yl)ethyl)piperidin-4-yl)-1-(4-(2-(ethylthio)-4-fluorobenzyl)piperazin-1-yl) ethan-1-one]	S (EC99≤12.5 μM)	S (EC99≤12.5 μM)	S (EC99≤12.5 μM)	A (12.5 μM<EC99≤25 μM)	A (12.5 μM<EC99≤25 μM)					
CCSc1cc(F)ccc1CN1CCN(C(=O)[C@H](N)C2CCN(CCc3cc(Cl)ccc3C3=CCCNC3)CC2)CC1 [Example 605, Hydrochloride of (R)-2-amino-2-(1-(5-chloro-2-(1,2,5,6-tetrahydropyridin-3-yl)phenethyl)piperidin-4-yl)-1-(4-(2-(cthylthio)-4-fluorobenzyl)piperazin-1-yl) ethan-1-one]	B (25 μM<EC99≤100 μM)	S (EC99≤12.5 μM)	S (EC99≤12.5 μM)	S (EC99≤12.5 μM)	S (EC99≤12.5 μM)					
CCSc1cc(F)ccc1CN1CCN(C(=O)[C@H](N)C2CCN(CCc3cc(Cl)ccc3-c3cc(O)ccc3F)CC2)CC1 [Example 615, (R)-2-amino-2-(1-(2-(4-chloro-2′-fluoro-5′-hydroxy-[1,1′-biphenyl]-2-yl)ethyl)piperidin-4-yl)-1-(4-(2-(ethylthio)-4-fluorobenzyl)piperazin-1-yl)ethan-1-one]	S (EC99≤12.5 μM)	S (EC99≤12.5 μM)	S (EC99≤12.5 μM)	S (EC99≤12.5 μM)	S (EC99≤12.5 μM)					
CCOc1cccc(F)c1CN1CCN(C(=O)[C@H](N)C2CCN(CCc3cc(Cl)ccc3-c3cc(Cl)ccc3O)CC2)CC1 [Example 580, Hydrochloride of (R)-2-amino-2-(1-(2-(4,5′-dichloro-2′-hydroxy-[1,1-biphenyl]-2-yl)ethyl)piperidin-4-yl)-1-(4-(2-ethoxy-6-fluorobenzyl)piperazin-1-yl)ethan-1-one]	A (12.5 μM<EC99≤25 μM)	S (EC99≤12.5 μM)	A (12.5 μM<EC99≤25 μM)	S (EC99≤12.5 μM)	A (12.5 μM<EC99≤25 μM)					
CCOc1cccc(F)c1CN1CCN(C(=O)[C@H](N)C2CCN(CCn3ccc4ccccc43)CC2)CC1 [Example 159, Hydrobromide of (R)-2-(1-(2-(1H-indol-1-yl)ethyl)piperidin-4-yl)-2-amino-1-(4-(2-ethoxy-6-fluorobenzyl)piperazin-1-yl)ethan-1-one]						C (100 μM<EC99)	C (100 μM<EC99)	C (100 μM<EC99)	B (25 μM<EC99≤100 μM)	C (100 μM<EC99)
CCOc1cccc(F)c1CN1CCN(C(=O)[C@H](N)C2CCN(CCc3cc(Cl)ccc3-c3cccc(C)c3)CC2)CC1 [Example 68, Hydrobromide of (R)-2-amino-2-(1-(2-(4-chloro-3′-methyl-[1,1′-biphenyl]-2-yl)ethyl)piperidin-4-yl)-1-(4-(2-ethoxy-6-fluorobenzyl)piperazin-1-yl)ethan-1-one]						B (25 μM<EC99≤100 μM)	B (25 μM<EC99≤100 μM)	B (25 μM<EC99≤100 μM)	A (12.5 μM<EC99≤25 μM)	A (12.5 μM<EC99≤25 μM)
CCSc1ccc(O)cc1CN1CCN(C(=O)[C@H](N)C2CCN(CCc3cc(Cl)ccc3-c3cccc(O)c3Cl)CC2)CC1 [Example 622, Hydrochloride of (R)-2-amino-2-(1-(2-(2′,4-dichloro-3′-hydroxy-[1,1-biphenyl]-2-yl)ethyl)piperidin-4-yl)-1-(4-(2-(ethylthio)-5-hydroxybenzyl)piperazin-1-yl)ethan-1-one]	S (EC99≤12.5 μM)	S (EC99≤12.5 μM)	S (EC99≤12.5 μM)	S (EC99≤12.5 μM)	A (12.5 μM<EC99≤25 μM)					
N[C@@H](C(=O)N1CCN(Cc2c(F)cccc2-c2c[nH]cn2)CC1)C1CCN(CCc2cc(Cl)ccc2-c2ccccc2)CC1 [Example 528, Hydrobromide of (R)-2-amino-2-(1-(2-(4-chloro-[1,1-biphenyl]-2-yl)ethyl)piperidin-4-yl)-1-(4-(2-fluoro-6-(1H-imidazol-4-yl)benzyl)piperazin-1-yl)ethan-1-one]	B (25 μM<EC99≤100 μM)	A (12.5 μM<EC99≤25 μM)	A (12.5 μM<EC99≤25 μM)	A (12.5 μM<EC99≤25 μM)	S (EC99≤12.5 μM)					
CNc1cccc(-c2ccc(Cl)cc2CCN2CCC([C@@H](N)C(=O)N3CCN(Cc4ccccc4SC)CC3)CC2)c1 [Example 565, Hydrobromide of (R)-2-amino-2-(1-(2-(4-chloro-3′-(methylamino)-[1,1-biphenyl]-2-yl)ethyl)piperidin-4-yl)-1-(4-(2-(methylthio)benzyl)piperazin-1-yl)ethan-1-one]	A (12.5 μM<EC99≤25 μM)	S (EC99≤12.5 μM)	S (EC99≤12.5 μM)	B (25 μM<EC99≤100 μM)	B (25 μM<EC99≤100 μM)					
CCOc1cccc(F)c1CN1CCN(C(=O)[C@H](N)C2CCN(CCc3cc(Cl)ccc3-c3cncc(O)c3)CC2)CC1 [Example 572, Hydrochloride of (R)-2-amino-2-(1-(5-chloro-2-(5-hydroxypyridin-3-yl)phenethyl)piperidin-4-yl)-1-(4-(2-ethoxy-6-fluorobenzyl)piperazin-1-yl) ethan-1-one]	B (25 μM<EC99≤100 μM)	C (100 μM<EC99)	B (25 μM<EC99≤100 μM)	A (12.5 μM<EC99≤25 μM)	A (12.5 μM<EC99≤25 μM)					
CCSc1cc(F)ccc1CN1CCN(C(=O)[C@H](N)C2CCN(CCc3cc(Cl)ccc3-c3cc(N)cc(F)c3)CC2)CC1 [Example 606, Hydrochloride of (R)-2-amino-2-(1-(2-(3′-amino-4-chloro-5′-fluoro-[1,1-biphenyl]-2-yl)ethyl)piperidin-4-yl)-1-(4-(2-(ethylthio)-4-fluorobenzyl)piperazin-1-yl)ethan-1-one]	S (EC99≤12.5 μM)	S (EC99≤12.5 μM)	S (EC99≤12.5 μM)	B (25 μM<EC99≤100 μM)	B (25 μM<EC99≤100 μM)					
N[C@@H](C(=O)N1CCN(Cc2cccc3c2OCCO3)CC1)C1CCN(CCc2cc(Cl)ccc2-c2ccccc2)CC1 [Example 37, Hydrobromide of (R)-2-amino-2-(1-(2-(4-chloro-[1,1′-biphenyl]-2-yl)ethyl)piperidin-4-yl)-1-(4-((2,3-dihydrobenzo[b] [1,4]dioxin-5-yl)methyl)piperazin-1-yl) ethan-1-one]						B (25 μM<EC99≤100 μM)	C (100 μM<EC99)	B (25 μM<EC99≤100 μM)	B (25 μM<EC99≤100 μM)	B (25 μM<EC99≤100 μM)
CCOc1cccc(F)c1CN1CCN(C(=O)[C@H](N)C2CCN(CCc3cc(Cl)ccc3-c3cccc(O)c3Cl)CC2)CC1 [Example 571, (R)-2-amino-2-(1-(2-(2′,4-dichloro-3′-hydroxy-[1,1′-biphenyl]-2-yl)ethyl)piperidin-4-yl)-1-(4-(2-ethoxy-6-fluorobenzyl)piperazin-1-yl)ethan-1-one]	S (EC99≤12.5 μM)	S (EC99≤12.5 μM)	S (EC99≤12.5 μM)	S (EC99≤12.5 μM)	S (EC99≤12.5 μM)					
CCOc1cccc(F)c1CN1CCN(C(=O)[C@H](N)C2CCN(CCc3cc(Cl)ccc3-c3cn[nH]c3)CC2)CC1 [Example 502, Hydrobromide of (R)-2-amino-2-(1-(S-chloro-2-(1H-pyrazol-4-yl)phenethyl)piperidin-4-yl)-1-(4-(2-ethoxy-6-fluorobenzyl)piperazin-1-yl)ethan-1-one]	C (100 μM<EC99)	B (25 μM<EC99≤100 μM)	B (25 μM<EC99≤100 μM)	S (EC99≤12.5 μM)	S (EC99≤12.5 μM)					
